Laboratory results taken from patent EP4389156A1, “RA[…] LIGAND COMPOUNDS AND PRECURSORS THEREOF” (Technische Universität München, priority 2022, dated 2024).
Where “and” joins values, the source holds several entries; their conditions need not be identical. Equal values may be shown once.

Test system: LNCaP tumor-bearing CB17-SCID mice
Assay: Biodistribution study in LNCaP tumor-bearing mice
Type: in vivo
Description: All animal experiments were conducted in accordance with general animal welfare regulations in Germany (German animal protection act, in the edition of the announcement, dated May 18th, 2006, as amended by Article 280 of June 19th 2020, approval no. ROB-55.2-1-2532.Vet_02-18-109 by the General Administration of Upper Bavaria) and the institutional guidelines for the care and use of animals. Male CB17-SCID mice were purchased from Charles River (Sulzfeld, Germany) and arrived at the in-house animal facility to acclimate at least 1 week before the start of the experiment. Tumor xenografts were established by subcutaneous inoculation of LNCaP cells (approx. 2 × 10^7 cells in 200 µL of a 1:1 mixture of Cultrex BME (R&D Systems, Minneapolis, United States) and DMEM/Ham's F-12) onto the right shoulder of 6-8 weeks old male CB17-SCID mice. The animals were used for experiments when tumors had grown to a size of 5-10 mm in diameter. Criteria for the exclusion of animals from the experiment were weight loss higher than 20%, tumor size above 1.5 cm^3, ulceration of the tumor, respiratory distress or change of behavior. […] Neither randomisation nor blinding was applied in the allocation of the experiments. Quarterly health monitoring was performed according to the FELASA recommendations.
Biodistribution Studies. The ^99mTc-labeled radioligands (2.7 ± 0.7 MBq, 82 ± 20 pmol) were injected into a lateral tail vein of LNCaP-tumor bearing mice (n = 4-5) under isoflurane anesthesia. Animals were sacrificed at 6 h post injection (p.i.) by carbon dioxide inhalation and blood withdrawal via cardiac puncture. Blood and tissues of interest were collected, weighed and the activity measured in a γ-counter. Radioligand uptake is given in percent of the injected dose per gram of tissue (% ID/g) and results are presented as mean ± SD.
In line with the above, the biodistribution study of [^99mTc]Tc-N4-PSMA-21 was carried out with n = 5 animals ("data set I"). […] Kidney uptake of mouse #3 (36.17 %ID/g) exceeded the value obtained from the other four animals (4.58 ± 1.44 %ID/g, mean ± SD) 7.9-fold or by more than 20 standard deviations. In addition, tumor uptake of mouse #3 (21.92 %ID/g) exceeded the value obtained from the other four animals (11.02 ± 2.22 %ID/g, mean ± SD) 2.0-fold or by more than 4 standard deviations Due to the uncertainty whether these huge deviations arise from an experimental error or might be related to strongly deviating metabolic processes e.g. abnormal kidney function in mouse #3, the study primarily presents and discusses the data set based on the other four animals (n = 4, "data set II"). A thorough evaluation and comparison was, however, also carried out including mouse #3.

[1] = 6 h p.i., male LNCaP tumor-bearing CB17-SCID mice, mean, n = 4-5
[2] = 6 h p.i., mean of ratios of individual animals, n = 4-5
[3] = 6 h p.i., relative to [^99mTc]Tc-PSMA-I&S

SMILES: CC(C)(C)[Si](O)(c1ccc(C(=O)NC[C@@H](NC(=O)[C@@H](CCC(=O)O)NC(=O)C(CNCCN)CNCCN)C(=O)N[C@H](CCCCNC(=O)CCC(=O)NCCC[C@@H](NC(=O)CC[C@H](NC(=O)N[C@@H](CCC(=O)O)C(=O)O)C(=O)O)C(=O)O)C(=O)O)cc1)C(C)(C)C.[O]=[99Tc+]=[O] [[^99mTc]Tc-N4-PSMA-12]
- uptake in % iD/g adrenals [1]: 0.6570 % ID/g
- uptake in % iD/g blood [1]: 0.0200 ± 0.0044 % ID/g and 0.0200 % ID/g
- uptake in % iD/g bone [1]: 0.0365 % ID/g
- uptake in % iD/g heart [1]: 0.0274 % ID/g
- uptake in % iD/g intestine [1]: 0.5391 % ID/g
- uptake in % iD/g kidney [1]: 12.3 ± 8.0 % ID/g and 12.2924 % ID/g
- uptake in % iD/g liver [1]: 0.1796 % ID/g
- uptake in % iD/g lung [1]: 0.0613 % ID/g
- uptake in % iD/g muscle [1]: 0.0110 % ID/g
- uptake in % iD/g pancreas [1]: 0.0206 % ID/g
- uptake in % iD/g parotid gland [1]: 0.0804 % ID/g
- uptake in % iD/g spleen [1]: 0.8928 % ID/g
- uptake in % iD/g stomach [1]: 0.0988 % ID/g
- uptake in % iD/g submandibular gland [1]: 0.1450 % ID/g
- uptake in % iD/g tumor [1]: 13.0231 % ID/g
- tumor-to-background ratio adrenals [2]: 22.15
- tumor-to-background ratio blood [2]: 658 ± 147 and 657.74
- tumor-to-background ratio bone [2]: 384.40
- tumor-to-background ratio heart [2]: 484.90
- tumor-to-background ratio intestine [2]: 57.76
- tumor-to-background ratio kidney [2]: 1.64 ± 1.29 and 1.64
- tumor-to-background ratio liver [2]: 79.92
- tumor-to-background ratio lung [2]: 216.68
- tumor-to-background ratio muscle [2]: 1265.34
- tumor-to-background ratio pancreas [2]: 637.21
- tumor-to-background ratio parotid gland [2]: 177.38
- tumor-to-background ratio spleen [2]: 17.89
- tumor-to-background ratio stomach [2]: 158.87
- tumor-to-background ratio submandibular gland [2]: 90.45
- fold T/blood-ratio in comparison with [^99mTc]Tc-PSMA-I&S [3]: 3 fold
- fold T/kidney-ratio in comparison with [^99mTc]Tc-PSMA-I&S [3]: 20 fold
- fold decrease of blood activity at 6 h p.i. (relative to [^99mTc]Tc-PSMA-I&S): 3.6 fold
